{"source": "ChEMBL document CHEMBL2074517", "about": "“Bile acid inhibition of P-glycoprotein-mediated transport in multidrug-resistant cells and rat liver canalicular membrane vesicles” (Hepatology, 1994)", "parameters_in_all_cases": "scale not given: the % may be the effect or the level left", "key": {"[1]": {"molecular_target": "Multidrug resistance protein 1a (Rattus norvegicus) (UniProt Q6PSM0)", "sequence (Q6PSM0 as listed by the source)": "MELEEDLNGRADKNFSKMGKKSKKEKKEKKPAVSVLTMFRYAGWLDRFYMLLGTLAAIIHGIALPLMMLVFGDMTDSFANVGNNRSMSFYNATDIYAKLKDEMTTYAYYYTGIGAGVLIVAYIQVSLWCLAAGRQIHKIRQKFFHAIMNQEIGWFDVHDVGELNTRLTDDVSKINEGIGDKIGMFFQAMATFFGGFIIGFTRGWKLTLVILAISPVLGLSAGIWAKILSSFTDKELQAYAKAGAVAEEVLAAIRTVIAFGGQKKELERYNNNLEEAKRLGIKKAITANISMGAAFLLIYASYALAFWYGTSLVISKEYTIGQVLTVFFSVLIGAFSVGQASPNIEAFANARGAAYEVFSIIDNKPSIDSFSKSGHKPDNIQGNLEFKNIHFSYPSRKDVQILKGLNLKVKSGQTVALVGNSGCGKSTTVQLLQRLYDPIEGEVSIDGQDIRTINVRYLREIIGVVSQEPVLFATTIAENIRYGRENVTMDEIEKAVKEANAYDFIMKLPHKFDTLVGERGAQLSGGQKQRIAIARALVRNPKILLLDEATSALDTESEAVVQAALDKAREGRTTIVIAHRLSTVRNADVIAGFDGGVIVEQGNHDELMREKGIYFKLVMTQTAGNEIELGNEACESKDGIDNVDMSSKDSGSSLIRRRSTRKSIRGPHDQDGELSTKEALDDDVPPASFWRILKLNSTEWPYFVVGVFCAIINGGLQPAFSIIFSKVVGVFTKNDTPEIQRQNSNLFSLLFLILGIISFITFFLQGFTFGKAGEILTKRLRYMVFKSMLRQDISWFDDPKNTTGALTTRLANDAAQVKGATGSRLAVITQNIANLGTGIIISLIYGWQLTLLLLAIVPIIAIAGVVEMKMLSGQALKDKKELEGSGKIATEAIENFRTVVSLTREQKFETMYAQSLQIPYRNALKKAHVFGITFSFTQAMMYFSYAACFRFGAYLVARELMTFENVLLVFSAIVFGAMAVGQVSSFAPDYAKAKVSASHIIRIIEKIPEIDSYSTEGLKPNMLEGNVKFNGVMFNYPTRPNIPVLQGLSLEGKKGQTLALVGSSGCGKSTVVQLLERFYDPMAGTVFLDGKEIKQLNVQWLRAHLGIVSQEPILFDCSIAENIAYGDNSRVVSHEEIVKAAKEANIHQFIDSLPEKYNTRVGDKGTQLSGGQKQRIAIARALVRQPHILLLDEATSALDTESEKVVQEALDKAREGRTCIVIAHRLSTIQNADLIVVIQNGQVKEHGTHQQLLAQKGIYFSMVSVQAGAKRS", "assay": "TP_TRANSPORTER: inhibition of Daunomycin uptake (Daunorubicin: 10 uM, TCDC: 200 uM) in canalicular membrane vesicles from SD rat", "type": "functional, cell membranes", "details": "Sprague-Dawley, Canalicular membrane vesicle"}, "[2]": {"molecular_target": "ATP-dependent translocase ABCB1 (Homo sapiens, UniProt P08183)", "sequence (P08183 whole entry)": "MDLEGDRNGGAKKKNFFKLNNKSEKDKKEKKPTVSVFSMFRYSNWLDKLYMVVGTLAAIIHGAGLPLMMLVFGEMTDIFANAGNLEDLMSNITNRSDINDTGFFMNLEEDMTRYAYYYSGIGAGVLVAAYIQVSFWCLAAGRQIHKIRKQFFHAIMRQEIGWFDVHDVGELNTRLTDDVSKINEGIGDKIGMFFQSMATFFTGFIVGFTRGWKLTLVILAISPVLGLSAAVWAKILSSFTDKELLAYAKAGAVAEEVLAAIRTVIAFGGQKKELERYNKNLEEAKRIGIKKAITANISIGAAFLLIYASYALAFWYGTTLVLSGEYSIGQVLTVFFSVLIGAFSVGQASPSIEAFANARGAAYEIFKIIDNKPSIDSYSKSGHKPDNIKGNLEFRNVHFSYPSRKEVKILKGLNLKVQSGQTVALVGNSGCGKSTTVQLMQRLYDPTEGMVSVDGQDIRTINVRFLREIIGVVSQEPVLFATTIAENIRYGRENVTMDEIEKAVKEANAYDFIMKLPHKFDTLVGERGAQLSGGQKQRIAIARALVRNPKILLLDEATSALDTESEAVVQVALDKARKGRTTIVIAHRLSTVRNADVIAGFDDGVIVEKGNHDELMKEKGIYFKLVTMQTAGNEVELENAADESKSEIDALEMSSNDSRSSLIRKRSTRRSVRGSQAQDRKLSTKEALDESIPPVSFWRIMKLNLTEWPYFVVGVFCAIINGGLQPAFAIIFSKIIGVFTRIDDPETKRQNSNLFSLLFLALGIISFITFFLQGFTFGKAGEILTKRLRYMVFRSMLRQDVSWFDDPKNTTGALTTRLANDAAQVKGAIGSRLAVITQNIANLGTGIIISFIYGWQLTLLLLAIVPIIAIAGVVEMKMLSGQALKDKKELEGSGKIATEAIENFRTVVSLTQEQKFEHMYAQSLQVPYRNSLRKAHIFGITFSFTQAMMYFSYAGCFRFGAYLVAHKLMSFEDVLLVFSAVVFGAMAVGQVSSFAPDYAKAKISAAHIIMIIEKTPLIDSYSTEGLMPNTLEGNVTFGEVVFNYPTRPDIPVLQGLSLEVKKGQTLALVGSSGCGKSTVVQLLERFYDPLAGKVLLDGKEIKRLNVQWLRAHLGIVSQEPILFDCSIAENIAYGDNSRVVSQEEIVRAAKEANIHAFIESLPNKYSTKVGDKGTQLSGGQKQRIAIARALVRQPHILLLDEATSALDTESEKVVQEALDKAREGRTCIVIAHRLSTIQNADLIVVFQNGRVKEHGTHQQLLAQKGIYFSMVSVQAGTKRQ", "assay": "TP_TRANSPORTER: inhibition of Rhodamine 123 efflux (R123: 5 ug/mL, TCDC: 200 uM) in P1(0.5) cells", "type": "functional, cell-based"}, "[3]": {"molecular_target": "Multidrug resistance protein 1a (Rattus norvegicus) (UniProt Q6PSM0)", "assay": "TP_TRANSPORTER: inhibition of Daunomycin uptake (Daunorubicin: 10 uM, UDCA: 200 uM) in canalicular membrane vesicles from SD rat", "type": "functional, cell membranes", "details": "Sprague-Dawley, Canalicular membrane vesicle"}, "[4]": {"molecular_target": "Multidrug resistance protein 1a (Rattus norvegicus) (UniProt Q6PSM0)", "assay": "TP_TRANSPORTER: inhibition of Daunomycin uptake (Daunorubicin: 10 uM, TLCA: 200 uM) in canalicular membrane vesicles from SD rat", "type": "functional, cell membranes", "details": "Sprague-Dawley, Canalicular membrane vesicle"}, "[5]": {"molecular_target": "ATP-dependent translocase ABCB1 (P-glycoprotein) (Homo sapiens, UniProt P08183)", "sequence (P08183 whole entry)": "as above", "assay": "TP_TRANSPORTER: inhibition of Rhodamine 123 efflux (R123: 5 ug/mL, TLCA: 200 uM) in P1(0.5) cells", "type": "functional, cell-based", "details": "probe Rhodamine 123, read-out: Activity"}}, "data": [{"compound": "C[C@H](CCC(=O)NCCS(=O)(=O)O)[C@H]1CC[C@H]2[C@@H]3[C@H](O)C[C@@H]4C[C@H](O)CC[C@]4(C)[C@H]3CC[C@]12C", "note": "[TAUROCHENODEOXYCHOLATE]", "values": [{"measurement": "Activity", "setting": "[1]", "value": 33, "unit": "%"}, {"measurement": "Activity", "setting": "[2]", "value": 66, "unit": "%"}]}, {"compound": "C[C@H](CCC(=O)O)[C@H]1CC[C@H]2[C@@H]3[C@@H](O)C[C@@H]4C[C@H](O)CC[C@]4(C)[C@H]3CC[C@]12C", "values": [{"measurement": "Activity", "setting": "[3]", "value": 39, "unit": "%"}]}, {"compound": "C[C@H](CCC(=O)NCCS(=O)(=O)O)[C@H]1CC[C@H]2[C@@H]3CC[C@@H]4C[C@H](O)CC[C@]4(C)[C@H]3CC[C@]12C", "note": "[TAUROLITHOCHOLIC ACID]", "values": [{"measurement": "Activity", "setting": "[4]", "value": 16, "unit": "%"}, {"measurement": "activity at 200 µM", "setting": "[5]", "value": 40, "unit": "%"}]}]}
